Measured values published in patent US10266542B2, “EZH2 inhibitors” (priority 2017, dated 2019).
Read-outs that look alike come from different tables or passages of the source.

Columns and labels:
purified EZH2 enzyme = purified EZH2 enzyme (Homo sapiens (Human), UniProt Q15910); assay: biochemical; settings: purified EZH2, 4 μM SAM, histone 3.3 substrate, 30° C. three hours, fluorescence polarization readout
[1] = tested on: EZH2-mediated histone H3 Lys27 trimethylation in Pfeiffer cells (mutant EZH2 A677G); assay: Tri-Methyl Histone H3 (Lys 27) Sandwich ELISA in Pfeiffer cells; format: cell-based, human
Protocol: Briefly, Pfeiffer cells were cultured in RPMI medium supplemented with 10% fetal bovine serum and 1% penicillin and 1% streptomycin in 96 well culture plates at 37° C. to a density of 8000 cells/90 μl/well and the cells were harvested. […] The plates were incubated at 37° C. for 96 hours.
After incubation, the cells were pelleted by centrifugation in a pre-cooled 4° C. rotor at 1,100 rpm for 10 min and the supernatant was removed by aspiration. The cell pellet was resuspended in 55 μl of Lysis Buffer (0.4M HCl) and incubated on ice with periodic shaking for 30 minutes. The lysed cells were subjected to centrifugation at 4,200 rpm for 10 min at 4° C. and the supernatant containing acid-soluble proteins was collected and the remainder discarded.
A 65 μl aliquot of each cell lysate was added to a well of a microwell strip, the microwells were sealed using tape and incubated either at 37° C. for two hours or at 4° C. overnight. After incubation, the tape was removed at the microwells were washed four times using 200 μl of 1× Wash Buffer. To each washed microwell, a 100 μl aliquot of an anti-trimethyl histone H3 Lys27 Detection Antibody solution was added and the microwells were incubated at 37° C. for one hour. The Detection Antibody solution was removed by aspiration and the wells were washed four times each using 200 μl of 1× Wash Buffer.
A 100 μl aliquot of an HRP-linked secondary antibody was added to each well, the wells were sealed with tape and incubated at 37° C. for 30 min. The HRP-linked secondary antibody solution was removed by aspiration and the wells were washed four times using 200 μl of 1× Wash Buffer. A 100 μl aliquot of a TMB substrate was added to each well, the wells were sealed with tape and incubated at 37° C. for 10 min or 25° C. for 30 min. The reaction was stopped by the addition of 100 μl aliquot of a STOP solution and the plate was shaken briefly. The degree of histone H3 trimethylation was determined using a spectrophotometric readout by measuring the absorbance at 450 nm and then calculating the amount of trimethylated histone H3.

[2] = Homo sapiens, Pfeiffer cells (DLBCL, EZH2 A677G), 96 hours incubation, H3K27me3 ELISA, absorbance at 450 nm, read-out: IC50
[3] = Pfeiffer cells (DLBCL, EZH2 A677G), 96 hours incubation, H3K27me3 ELISA, absorbance at 450 nm, read-out: IC50

Compound	IC50 (purified EZH2 enzyme) [nM]	IC50 [1, 2] [nM]	IC50 [1, 3] [nM]	IC50 ([1]; Homo sapiens, Pfeiffer, 96 h) [nM]
Cc1[nH]c(=O)c(CN2CCc3c(Cl)cc(OC(C)C)c(Cl)c3C2=O)c2cc[nH]c12 [Example 4, 5,8-dichloro-7-isopropoxy-2-((7-methyl-5-oxo-5,6-dihydro-1H-pyrrolo[2,3-c]pyridin-4-yl)methyl)-3,4-dihydroisoquinolin-1(2H)-one]	202	1040	–	–
7-[[5-bromo-8-chloro-7-(3,5-dimethyltriazol-4-yl)-1-oxo-3,4-dihydroisoquinolin-2-yl]methyl]-4-methyl-5H-furo[3,2-c]pyridin-6-one [Example 7]	3	–	30	–
COC(c1cc(Cl)c2c(c1Cl)C(=O)N(Cc1c(=O)[nH]c(C)c3sccc13)CC2)C1COC1 (centres unmarked) [Example 12, 4-((5,8-dichloro-7-(methoxy(oxetan-3-yl)methyl)-1-oxo-3,4-dihydroisoquinolin-2(1H)-yl)methyl)-7-methylthieno[2,3-c]pyridin-5(6H)-one]	37	330	–	–
Cc1[nH]c(=O)c(CN2CCc3c(Cl)cc(C(C)C4COC4)c(Cl)c3C2=O)c2cc[nH]c12 (centres unmarked) [Example 19, 5,8-dichloro-2-[(7-methyl-5-oxo-1,6-dihydropyrrolo[2,3-c]pyridin-4-yl)methyl]-7-[1-(oxetan-3-yl)ethyl]-3,4-dihydroisoquinolin-1-one]	2	78	–	–
CCN(c1cc(Cl)c2c(c1Cl)C(=O)N(Cc1c(=O)[nH]c(C)c3ccoc13)CC2)C1CCOCC1 [Example 3, 7-((5,8-dichloro-7-(ethyl(tetrahydro-2H-pyran-4-yl)amino)-1-oxo-3,4-dihydroisoquinolin-2(1H)-yl)methyl)-4-methylfuro[3,2-c]pyridin-6(5H)-on]	5	31	–	–
Cc1noc(C)c1-c1cc(Cl)c2c(c1Cl)C(=O)N(Cc1c(=O)[nH]c(C)c3[nH]ccc13)CC2 [Example 13, 5,8-dichloro-7-(3,5-dimethylisoxazol-4-yl)-2-((7-methyl-5-oxo-5,6-dihydro-1H-pyrrolo[2,3-c]pyridin-4-yl)methyl)-3,4-dihydroisoquinolin-1 (2H)-one]	2	–	–	–
Cc1[nH]c(=O)c(CN2CCc3c(Cl)cc(N4CC5(CCOCC5)C4)c(Cl)c3C2=O)c2cc[nH]c12 [Example 5, 5,8-dichloro-2-((7-methyl-5-oxo-5,6-dihydro-1H-pyrrolo[2,3-c]pyridin-4-yl)methyl)-7-(7-oxa-2-azaspiro[3.5]nonan-2-yl)-3,4-dihydroisoquinolin-1(2H)-one]	< 0.5	17	–	–
Cc1[nH]c(=O)c(CN2CCc3ccc(OC(C)C)c(Cl)c3C2=O)c2occc12 [Example 6, 7-((8-chloro-7-isopropoxy-1-oxo-3,4-dihydroisoquinolin-2(1H)-yl)methyl)-4-methylfuro[3,2-c]pyridin-6(5H)-one]	7	44	–	–
Cc1[nH]c(=O)c(CN2CCc3c(Cl)cc(N4CC5(CCOCC5)C4)c(Cl)c3C2=O)c2occc12 [Example 2, 7-((5,8-dichloro-1-oxo-7-(7-oxa-2-azaspiro[3.5]nonan-2-yl)-3,4-dihydroisoquinolin-2(1H)-yl)methyl)-4-methylfuro[3,2-c]pyridin-6(5H)-one]	5	273	–	–
Cc1[nH]c(=O)c(CN2CCc3c(Cl)cc(OC(C)C)c(Cl)c3C2=O)c2occc12 [Example 1, 7-((5,8-dichloro-7-isopropoxy-1-oxo-3,4-dihydroisoquinolin-2(1H)-yl)methyl)-4-methylfuro[3,2-c]pyridin-6(5H)-one]	6	–	–	759
5,8-dichloro-7-(3,5-dimethyltriazol-4-yl)-2-[(7-methyl-5-oxo-1,6-dihydropyrrolo[2,3-c]pyridin-4-yl)methyl]-3,4-dihydroisoquinolin-1-one [Example 15]	2	–	6	–
COC(c1cc(Cl)c2c(c1Cl)C(=O)N(Cc1c(=O)[nH]c(C)c3ccoc13)CC2)C1CS(=O)(=O)C1 (centres unmarked) [Example 18, 7-((5,8-dichloro-7-((1,1-dioxidothietan-3-yl)(methoxy)methyl)-1-oxo-3,4-dihydroisoquinolin-2(1H)-yl)methyl)-4-methylfuro[3,2-c]pyridin-6(5H)-one]	2	78	–	–
COC(c1cc(Cl)c2c(c1Cl)C(=O)N(Cc1c(=O)[nH]c(C)c3ccoc13)CC2)C1COC1 (centres unmarked) [Example 9, 7-((5,8-dichloro-7-(methoxy(oxetan-3-yl)methyl)-1-oxo-3,4-dihydroisoquinolin-2(1H)-yl)methyl)-4-methylfuro[3,2-c]pyridin-6(5H)-one]	4	–	–	126
COC(c1cc(Cl)c2c(c1Cl)C(=O)N(Cc1c(=O)[nH]c(C)c3ccoc13)CC2)C1CN(C)C1 (centres unmarked) [Example 10, 7-((5,8-dichloro-7-(methoxy(1-methylazetidin-3-yl)methyl)-1-oxo-3,4-dihydroisoquinolin-2(1H)-yl)methyl)-4-methylfuro[3,2-c]pyridin-6(5H)-one]	–	336	–	–
Cc1noc(C)c1-c1cc(Cl)c2c(c1Cl)C(=O)N(Cc1c(=O)[nH]c(C)c3ccoc13)CC2 [Example 16, 7-((5,8-dichloro-7-(3,5-dimethylisoxazol-4-yl)-1-oxo-3,4-dihydroisoquinolin-2(1H)-yl)methyl)-4-methylfuro[3,2-c]pyridin-6(5H)-one]	3	7	–	–
COC(c1cc(Cl)c2c(c1Cl)C(=O)N(Cc1c(=O)[nH]c(C)c3[nH]ccc13)CC2)C1CN(C)C1 (centres unmarked) [Example 11, 5,8-dichloro-7-(methoxy(1-methylazetidin-3-yl)methyl)-2-((7-methyl-5-oxo-5,6-dihydro-1H-pyrrolo[2,3-c]pyridin-4-yl)methyl)-3,4-dihydroisoquinolin-1(2H)-one]	10	12	–	–
COC(c1cc(Cl)c2c(c1Cl)C(=O)N(Cc1c(=O)[nH]c(C)c3[nH]ccc13)CC2)C1COC1 (centres unmarked) [Example 17, 5,8-dichloro-7-[methoxy(oxetan-3-yl)methyl]-2-[(7-methyl-5-oxo-1,6-dihydropyrrolo[2,3-c]pyridin-4-yl)methyl]-3,4-dihydroisoquinolin-1-one]	1	–	–	–
Cc1cc2c(C)[nH]c(=O)c(CN3CCc4c(Cl)cc(OC(C)C)c(Cl)c4C3=O)c2o1 [Example 8, 7-((5,8-dichloro-7-isopropoxy-1-oxo-3,4-dihydroisoquinolin-2(1H)-yl)methyl)-2,4-dimethylfuro[3,2-c]pyridin-6(5H)-one]	95	–	–	–
